Measurements: the CheMixHub viscosity set

Test: xn = mol fraction of the nth substance listed

C=Cc1ccccc1 + CCCCCCO
viscosity [mPa·s], 101.33 kPa
Conditions	x1 = 0.0998	x1 = 0.2024	x1 = 0.3078	x1 = 0.4006	x1 = 0.5007	x1 = 0.5988	x1 = 0.6993	x1 = 0.7986	x1 = 0.8985
298.15 K	3.131	2.522	1.956	1.613	1.293	1.134	0.972	0.891	0.808
303.15 K	2.773	2.177	1.703	1.446	1.154	1.051	0.89	0.84	0.747
308.15 K	2.296	1.88	1.497	1.298	1.114	1.008	0.86	0.81	0.693

CC(=O)c1ccc(Cl)cc1 + CCCCCCO
303.15 K, 101 kPa
Conditions	viscosity [mPa·s]
x1 = 0.0521	3.667
x1 = 0.1009	3.442
x1 = 0.1668	3.212
x1 = 0.2325	2.982
x1 = 0.3002	2.791
x1 = 0.4028	2.603
x1 = 0.5001	2.511
x1 = 0.5708	2.462
x1 = 0.641	2.437
x1 = 0.6998	2.428
x1 = 0.7655	2.448
x1 = 0.8376	2.502
x1 = 0.9007	2.589
x1 = 0.9513	2.717

CCCCCCCCO + CCCCCCO
viscosity [mPa·s], 101.8 kPa
Conditions	x2 = 0.1207	x2 = 0.3506	x2 = 0.5615	x2 = 0.7463	x2 = 0.9227
298.15 K	7.227	6.442	5.793	5.234	4.736
308.15 K	5.209	4.695	4.259	3.879	3.53
318.15 K	3.833	3.481	3.18	2.914	2.671

BrC(Br)Br + CCCCCO
viscosity [mPa·s], 101.3 kPa
Conditions	x1 = 0.097	x1 = 0.2	x1 = 0.296	x1 = 0.4	x1 = 0.499	x1 = 0.6	x1 = 0.701	x1 = 0.8	x1 = 0.9
298.15 K	3.255	3.006	2.729	2.477	2.275	2.114	1.997	1.91	1.873
303.15 K	2.831	2.621	2.399	2.2	2.039	1.928	1.822	1.762	1.742
308.15 K	2.452	2.296	2.113	1.954	1.829	1.741	1.67	1.631	1.628

C=Cc1ccccc1 + CCCCCO
viscosity [mPa·s], 101.33 kPa
Conditions	x1 = 0.1003	x1 = 0.1994	x1 = 0.3003	x1 = 0.3977	x1 = 0.4969	x1 = 0.5963	x1 = 0.7027	x1 = 0.8026	x1 = 0.9011
298.15 K	2.791	2.141	1.602	1.32	1.112	0.984	0.859	0.783	0.737
303.15 K	2.472	1.984	1.404	1.175	1.013	0.901	0.793	0.741	0.692
308.15 K	2.166	1.638	1.25	1.046	0.915	0.82	0.722	0.68	0.637

CCC(C)(C)OC + CCCCCO
298.15 K, 101.33 kPa
Conditions	viscosity [mPa·s]
x1 = 0.0219	3.286
x1 = 0.0388	3.133
x1 = 0.0752	2.891
x1 = 0.1143	2.511
x1 = 0.1631	2.192
x1 = 0.211	1.93
x1 = 0.2721	1.651
x1 = 0.3347	1.417
x1 = 0.3464	1.374
x1 = 0.385	1.26
x1 = 0.4353	1.125
x1 = 0.4908	1.003
x1 = 0.5534	0.886
x1 = 0.6141	0.789
x1 = 0.6759	0.71
x1 = 0.7266	0.652
x1 = 0.8027	0.579
x1 = 0.8732	0.521
x1 = 0.9484	0.469
x2 = 0.0064	0.441

CCCCCCCCO + CCCCCO
101.33 kPa
Conditions	viscosity [mPa·s]
293.15 K, x2 = 0.1991	7.947
293.15 K, x2 = 0.3363	7.158
293.15 K, x2 = 0.4792	6.397
293.15 K, x2 = 0.6294	5.561
293.15 K, x2 = 0.7214	5.182
293.15 K, x2 = 0.911	4.341
298.15 K, x2 = 0.0849	7.229
298.15 K, x2 = 0.2664	6.385
298.15 K, x2 = 0.3696	5.903
298.15 K, x2 = 0.6046	4.921
298.15 K, x2 = 0.708	4.524
298.15 K, x2 = 0.8575	3.97

BrC(Br)Br + CCCCO
viscosity [mPa·s], 101.3 kPa
Conditions	x1 = 0.099	x1 = 0.205	x1 = 0.3	x1 = 0.401	x1 = 0.501	x1 = 0.602	x1 = 0.699	x1 = 0.803	x1 = 0.899
298.15 K	2.482	2.339	2.196	2.063	1.955	1.887	1.847	1.817	1.827
303.15 K	2.183	2.07	1.942	1.841	1.768	1.718	1.695	1.684	1.709
308.15 K	1.915	1.828	1.738	1.662	1.607	1.573	1.559	1.564	1.588

C=Cc1ccccc1 + CCCCO
viscosity [mPa·s], 101.33 kPa
Conditions	x1 = 0.0999	x1 = 0.2019	x1 = 0.2994	x1 = 0.3982	x1 = 0.5226	x1 = 0.602	x1 = 0.703	x1 = 0.7942	x1 = 0.8935
298.15 K	1.971	1.644	1.368	1.165	0.969	0.913	0.821	0.772	0.729
303.15 K	1.809	1.47	1.23	1.052	0.885	0.83	0.767	0.721	0.681
308.15 K	1.636	1.327	1.104	0.95	0.811	0.762	0.693	0.66	0.63

CCCCCCCCO + CCCCO
viscosity [mPa·s], 101 kPa
Conditions	298.15 K	308.15 K	318.15 K
x2 = 0.05	7.06	5.06	3.734
x2 = 0.1	6.764	4.867	3.602
x2 = 0.15	6.475	4.678	3.472
x2 = 0.2	6.193	4.492	3.345
x2 = 0.25	5.917	4.309	3.22
x2 = 0.3	5.646	4.129	3.097
x2 = 0.35	5.382	3.953	2.975
x2 = 0.4	5.123	3.779	2.855
x2 = 0.45	4.87	3.608	2.736
x2 = 0.5	4.622	3.44	2.618
x2 = 0.55	4.38	3.275	2.502
x2 = 0.6	4.145	3.113	2.388
x2 = 0.65	3.915	2.955	2.275
x2 = 0.7	3.692	2.8	2.164
x2 = 0.75	3.476	2.649	2.055
x2 = 0.8	3.268	2.502	1.948
x2 = 0.85	3.067	2.36	1.845
x2 = 0.9	2.875	2.223	1.744
x2 = 0.95	2.693	2.092	1.648

CC(C)(C)N + CCCCOC(C)=O
303.15 K, 101 kPa
Conditions	viscosity [mPa·s]
x1 = 0.1472	0.6309
x1 = 0.229	0.6186
x1 = 0.3626	0.5943
x1 = 0.435	0.5852
x1 = 0.5578	0.5545
x1 = 0.6566	0.5313
x1 = 0.7339	0.5091
x1 = 0.8272	0.4861

BrC(Br)Br + CCCO
viscosity [mPa·s], 101 kPa
Conditions	x1 = 0.0998	x1 = 0.1979	x1 = 0.2988	x1 = 0.4005	x1 = 0.5	x1 = 0.5953	x1 = 0.69	x1 = 0.7999	x1 = 0.9007
298.15 K	1.964	1.932	1.879	1.813	1.782	1.767	1.768	1.786	1.853
303.15 K	1.737	1.716	1.681	1.647	1.623	1.621	1.632	1.674	1.734
308.15 K	1.543	1.528	1.506	1.481	1.481	1.49	1.505	1.559	1.618
313.15 K	1.363	1.363	1.354	1.339	1.352	1.379	1.393	1.448	1.515
